Results: patent publication US11813274B2, “Treating untreated or treatment-resistant diabetes with glucokinase activator and sodium-glucose cotransporter-2 inhibitor” (HUA Medicine (Shanghai) Ltd., priority 2020, dated 2023)

Legend:
[1] = system: subjects with Type-2 Diabetes Mellitus (T2DM); assay: Oral glucose tolerance test (OGTT): serum glucose pharmacodynamic response; type: in vivo, human; details: baseline corrected, after 75-gram OGTT 30 min post-dose, Days 5, 10, 15
Protocol: (§1) On Days 5, 10 and 15, a 75-gram glucose solution (oral glucose tolerance test, OGTT) was administered 30 min post-drug administration. No breakfast was provided.
(§2) Pharmacodynamic (PD) responses, i.e., serum levels of glucose, insulin and C-peptide and plasma levels of glucagon, were evaluated on Days 5, 10 and 15: pre-dose (within 60 min prior to glucose intake) and at 0.5, 1, 1.5, 2, 2.5, 3 and 4 h post-glucose intake. Urine was collected for urinary glucose excretion on Days 5, 10 and 15: pre-dose (for bladder emptying only, no pre-dose glucose measurement), and over a series of intervals (0-2 h, 2-4 h, 4-6 h, 6-8 h, 8-12 h and 12-24 h post-dose).

[2] = system: subjects with Type-2 Diabetes Mellitus (T2DM); assay: Oral glucose tolerance test (OGTT): serum C-peptide pharmacodynamic response; type: in vivo, human; details: baseline corrected, after 75-gram OGTT, Days 5, 10, 15
Protocol: as §1, §2

[3] = in vivo
Protocol: This phase I study accessed the pharmacokinetic interaction between dorzagliatin and empagliflozin in T2DM subjects.
Sixteen eligible subjects were enrolled and 15 of them completed the study.
All subjects received: (i) empagliflozin (25 mg, QD) on Days 1-5; and empagliflozin was taken 60 min prior to meals (except on Day 5, when it was administered 30 min before glucose intake); (ii) empagliflozin (25 mg, QD) and dorzagliatin (75 mg, BID) on Days 6-10 (only the morning dose on Day 10); and empagliflozin and dorzagliatin were taken 60 min prior to meals (except on Day 10, when they were administered 30 min before glucose intake); or (iii) dorzagliatin 75 mg BID on Days 11-15 (only the morning dose on Day 15); and dorzagliatin was taken 60 min prior to meals (except on Day 15, when it was administered 30 min before glucose intake).
Blood samples for the determination of dorzagliatin and empagliflozin concentrations and corresponding pharmacokinetic (PK) analysis were collected at the following time points on Days 5, 10 and 15: pre-dose (within 30 min prior to drug dosing) and at 0.25, 0.5, 1, 1.5, 2, 3, 4, 6, 8, 10, 12, 18 and 24 h post-dose. […]
The plasma concentration-time data for dorzagliatin and empagliflozin were analyzed using non-compartmental methods to calculate PK parameters.

Row | SMILES | Glucose response AUEC0-4 h, mean [1] [mg·h/dL] | Glucose response CEav, mean [1] [mg/dL] | Glucose response CEmax, mean [1] [mg/dL] | C-peptide response AUEC0-4 h, mean [2] [ng·h/mL] | C-peptide response CEav, mean [2] [ng/mL] | C-peptide response CEmax, mean [2] [ng/mL] | effect of empagliflozin on dorzagliatin PK parameters (drug-drug interaction) [3] | effect of dorzagliatin on empagliflozin PK parameters (drug-drug interaction) [3]
1 | OC[C@H]1O[C@@H](c2ccc(Cl)c(Cc3ccc(OC4CCOC4)cc3)c2)[C@H](O)[C@@H](O)[C@@H]1O (stereo in doubt) [Empagliflozin, (2S,3R,4R,5S,6R)-2-[4-chloro-3({4-[(3S)-oxolan-3-yloxy]phenyl}methyl)phenyl]-6-(hydroxymethyl)oxane-3,4,5-triol] | 452 | 113 | 199 | 11 | 2.7 | 4.7 | did not have a significant effect on dorzagliatin PK parameters | 
2 | CC(C)C[C@@H](C(=O)Nc1ccn(C[C@@H](O)CO)n1)N1CC(Oc2ccccc2Cl)=CC1=O [Dorzagliatin, (S)-2-(4-(2-chlorophenoxy)-2-oxo-2,5-dihydro-1H-pyrrol-1-yl)-N-(1-((R)-2,3-dihydroxypropyl)-1H-pyrazol-3-yl)-4-methylpentanamide] | 364 | 91 | 163 | 13 | 3.2 | 5.5 |  | did not have a significant effect on empagliflozin PK parameters
